In ChEMBL document CHEMBL5131376, “Kinase Inhibitors as Underexplored Antiviral Agents” (J Med Chem, 2022):

Experiments:
[1] = biological target: High affinity nerve growth factor receptor (Homo sapiens, UniProt P04629); assay: Inhibition of TrKA (unknown origin)
[2] = Cytotoxicity against human […] cells; assay type: toxicity, cell-based; settings: U2OS cells
[3] = biological target: Tyrosine-protein kinase ABL1 (Homo sapiens, UniProt P00519)
dengue virus type 1 = assay: Antiviral activity against DENV 1 infected in hamster BHK-21 cells assessed as focus formation measured after 5 days; assay type: functional, organism-based; settings: BHK-21, 120 h
dengue virus type 2 = assay: Antiviral activity against DENV 2 infected in african green monkey Vero cells assessed as focus formation measured after 6 days; assay type: functional, organism-based; settings: 144 h
dengue virus type 3 = assay: Antiviral activity against DENV 3 infected in african green monkey Vero cells assessed as focus formation measured after 6 days; assay type: functional, organism-based; settings: 144 h
dengue virus type 4 = assay: Antiviral activity against DENV 4 infected in african green monkey Vero cells assessed as focus formation measured after 6 days; assay type: functional, organism-based; settings: 144 h
[4] = Inhibition of PDGFR (unknown origin); set-up: species or system Homo sapiens
SARS-CoV = assay: microbe, parasite or virus in culture; settings: Severe acute respiratory syndrome-related coronavirus, Vero C1008, 50 h
Human alphaherpesvirus 1 = assay: Antiviral activity against HSV-1 infected in African green monkey Vero cells assessed as inhibition of viral replication; assay type: functional, organism-based; settings: Human alphaherpesvirus 1, Vero
Influenza A virus [5] = assay: Antiviral activity against Influenza A virus (A/WSN/33 (H1N1)); assay type: functional, organism-based
Influenza B virus [6] = assay: Antiviral activity against Influenza B virus B/Lee/40; assay type: functional, organism-based
Influenza A virus [7] = assay: Antiviral activity against Influenza A virus (A/Udorn/72 (H3N2)); assay type: functional, organism-based
Influenza A virus [8] = assay: Antiviral activity against Influenza A virus A/Equine/2/MIAMI/1/63 (H3N8)); assay type: functional, organism-based
Influenza A virus [9] = assay: Antiviral activity against Influenza A virus (A/PR/8/34 (H1N1)); assay type: functional, organism-based
Influenza B virus [10] = assay: Antiviral activity against Influenza B virus B/MD/59; assay type: functional, organism-based
Parainfluenza virus 5 = assay: Antiviral activity against PIV5; assay type: functional, organism-based
[11] = system: Human immunodeficiency virus 1; assay: Antiviral activity against HIV-1 in U87/CD4/CCR5 cells expressing HIV-1-envelope-protein assessed as decreased cell-cell fusion at 300 nM; assay type: functional; set-up: scale not given: the % may be the effect or the level left
[12] = biological target: BMP-2-inducible protein kinase (Homo sapiens, UniProt Q9NSY1); assay: Binding affinity to BIKE (unknown origin) assessed as dissociation constant
SARS-CoV-2 = assay: Antiviral activity against SARS-CoV-2 infected in african green monkey Vero cells incubated for 72 hrs by celltitre-glo luminescent assay; assay type: functional, organism-based; settings: Severe acute respiratory syndrome coronavirus 2, Vero
[13] = Cytotoxicity against african green monkey Vero cells; assay type: toxicity, cell-based; settings: chlorocebus sabaeus
[14] = biological target: AP2-associated protein kinase 1 (Homo sapiens, UniProt Q2M2I8); assay: Binding affinity to AAK1 (unknown origin) assessed as dissociation constant
[15] = system: Middle East respiratory syndrome-related coronavirus; assay: Antiviral activity against MERS-CoV infected in human HUh-7 cells at 0.1 to 10 uM; assay type: functional; settings: dose 0.1-10 µM
[16] = Inhibition of MEK (unknown origin); set-up: species or system Homo sapiens
[17] = biological target: Dual specificity mitogen-activated protein kinase kinase 1 (Homo sapiens, UniProt Q02750)
[18] = biological target: 1-phosphatidylinositol 3-phosphate 5-kinase (Homo sapiens, UniProt Q9Y2I7); assay: Inhibition of PIKFYVE (unknown origin)
[19] = system: Middle East respiratory syndrome-related coronavirus; assay: microbe, parasite or virus in culture; settings: Vero
[20] = Binding affinity to AMPK (unknown origin); set-up: species or system Homo sapiens
[21] = biological target: Cyclin-G-associated kinase (Homo sapiens, UniProt O14976); assay: Binding affinity to GAK (unknown origin) assessed as dissociation constant
Zika virus = assay: Antiviral activity against ZIKV infected in human SNB-19 cells; assay type: functional, organism-based
[22] = biological target: Cyclin-dependent kinase 2 (Homo sapiens, UniProt P24941); assay: Inhibition of CDK2 (unknown origin)

Chain of AP2-associated protein kinase 1 (Q2M2I8 whole entry): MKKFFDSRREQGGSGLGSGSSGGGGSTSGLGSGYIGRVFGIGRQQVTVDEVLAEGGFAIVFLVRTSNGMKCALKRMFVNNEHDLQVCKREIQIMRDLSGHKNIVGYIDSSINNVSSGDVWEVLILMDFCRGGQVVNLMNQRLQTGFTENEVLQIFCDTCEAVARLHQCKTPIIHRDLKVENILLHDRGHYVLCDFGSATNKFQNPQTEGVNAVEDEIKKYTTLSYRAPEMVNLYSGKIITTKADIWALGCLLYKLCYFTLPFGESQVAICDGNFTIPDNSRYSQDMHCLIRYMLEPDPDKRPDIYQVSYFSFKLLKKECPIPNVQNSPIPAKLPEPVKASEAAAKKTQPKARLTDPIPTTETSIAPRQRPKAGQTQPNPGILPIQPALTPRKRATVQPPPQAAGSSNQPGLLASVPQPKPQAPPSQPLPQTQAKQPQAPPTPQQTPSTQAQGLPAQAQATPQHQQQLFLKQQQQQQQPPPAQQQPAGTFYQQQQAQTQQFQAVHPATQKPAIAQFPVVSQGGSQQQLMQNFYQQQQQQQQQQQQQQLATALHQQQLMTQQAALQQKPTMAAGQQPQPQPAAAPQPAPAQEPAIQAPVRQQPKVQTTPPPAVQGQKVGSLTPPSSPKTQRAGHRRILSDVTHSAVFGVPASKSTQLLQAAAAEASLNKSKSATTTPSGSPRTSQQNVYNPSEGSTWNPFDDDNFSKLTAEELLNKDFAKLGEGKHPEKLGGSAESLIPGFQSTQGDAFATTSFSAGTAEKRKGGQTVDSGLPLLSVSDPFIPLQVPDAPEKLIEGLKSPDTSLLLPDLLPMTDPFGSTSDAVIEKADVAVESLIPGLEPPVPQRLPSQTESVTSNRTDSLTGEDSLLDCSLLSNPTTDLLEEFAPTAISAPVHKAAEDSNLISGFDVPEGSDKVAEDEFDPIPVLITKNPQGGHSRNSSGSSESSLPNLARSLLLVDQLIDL
Chain of Tyrosine-protein kinase ABL1 (P00519 whole entry): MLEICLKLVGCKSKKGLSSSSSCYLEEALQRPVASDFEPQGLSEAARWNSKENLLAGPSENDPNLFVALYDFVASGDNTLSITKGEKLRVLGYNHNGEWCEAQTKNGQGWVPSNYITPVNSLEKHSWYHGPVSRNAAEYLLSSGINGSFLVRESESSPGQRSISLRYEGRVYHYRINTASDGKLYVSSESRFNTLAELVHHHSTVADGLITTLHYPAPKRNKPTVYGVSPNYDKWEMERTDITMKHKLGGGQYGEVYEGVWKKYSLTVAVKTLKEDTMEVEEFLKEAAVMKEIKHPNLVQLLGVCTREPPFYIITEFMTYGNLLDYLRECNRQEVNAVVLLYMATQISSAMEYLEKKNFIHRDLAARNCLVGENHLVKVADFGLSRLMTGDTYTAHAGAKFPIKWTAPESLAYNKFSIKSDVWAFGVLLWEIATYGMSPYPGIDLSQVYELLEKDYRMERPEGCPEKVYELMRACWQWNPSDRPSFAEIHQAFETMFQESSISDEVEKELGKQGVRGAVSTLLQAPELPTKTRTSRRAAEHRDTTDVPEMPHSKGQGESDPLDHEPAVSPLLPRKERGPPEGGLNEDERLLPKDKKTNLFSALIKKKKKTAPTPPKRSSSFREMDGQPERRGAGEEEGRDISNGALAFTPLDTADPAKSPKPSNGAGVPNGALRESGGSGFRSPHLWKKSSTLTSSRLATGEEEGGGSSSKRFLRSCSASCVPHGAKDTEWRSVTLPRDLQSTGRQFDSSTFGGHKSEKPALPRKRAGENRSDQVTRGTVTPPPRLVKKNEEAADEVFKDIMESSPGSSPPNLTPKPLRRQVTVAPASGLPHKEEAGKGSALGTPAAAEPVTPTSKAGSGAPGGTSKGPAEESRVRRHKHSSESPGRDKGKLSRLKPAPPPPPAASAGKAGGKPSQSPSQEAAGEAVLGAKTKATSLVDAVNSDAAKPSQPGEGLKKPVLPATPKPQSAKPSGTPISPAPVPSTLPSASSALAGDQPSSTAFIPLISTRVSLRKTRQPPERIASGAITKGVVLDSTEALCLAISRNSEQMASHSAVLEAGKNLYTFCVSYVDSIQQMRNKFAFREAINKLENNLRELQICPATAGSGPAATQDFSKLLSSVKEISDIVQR
Chain of Cyclin-G-associated kinase (O14976 whole entry): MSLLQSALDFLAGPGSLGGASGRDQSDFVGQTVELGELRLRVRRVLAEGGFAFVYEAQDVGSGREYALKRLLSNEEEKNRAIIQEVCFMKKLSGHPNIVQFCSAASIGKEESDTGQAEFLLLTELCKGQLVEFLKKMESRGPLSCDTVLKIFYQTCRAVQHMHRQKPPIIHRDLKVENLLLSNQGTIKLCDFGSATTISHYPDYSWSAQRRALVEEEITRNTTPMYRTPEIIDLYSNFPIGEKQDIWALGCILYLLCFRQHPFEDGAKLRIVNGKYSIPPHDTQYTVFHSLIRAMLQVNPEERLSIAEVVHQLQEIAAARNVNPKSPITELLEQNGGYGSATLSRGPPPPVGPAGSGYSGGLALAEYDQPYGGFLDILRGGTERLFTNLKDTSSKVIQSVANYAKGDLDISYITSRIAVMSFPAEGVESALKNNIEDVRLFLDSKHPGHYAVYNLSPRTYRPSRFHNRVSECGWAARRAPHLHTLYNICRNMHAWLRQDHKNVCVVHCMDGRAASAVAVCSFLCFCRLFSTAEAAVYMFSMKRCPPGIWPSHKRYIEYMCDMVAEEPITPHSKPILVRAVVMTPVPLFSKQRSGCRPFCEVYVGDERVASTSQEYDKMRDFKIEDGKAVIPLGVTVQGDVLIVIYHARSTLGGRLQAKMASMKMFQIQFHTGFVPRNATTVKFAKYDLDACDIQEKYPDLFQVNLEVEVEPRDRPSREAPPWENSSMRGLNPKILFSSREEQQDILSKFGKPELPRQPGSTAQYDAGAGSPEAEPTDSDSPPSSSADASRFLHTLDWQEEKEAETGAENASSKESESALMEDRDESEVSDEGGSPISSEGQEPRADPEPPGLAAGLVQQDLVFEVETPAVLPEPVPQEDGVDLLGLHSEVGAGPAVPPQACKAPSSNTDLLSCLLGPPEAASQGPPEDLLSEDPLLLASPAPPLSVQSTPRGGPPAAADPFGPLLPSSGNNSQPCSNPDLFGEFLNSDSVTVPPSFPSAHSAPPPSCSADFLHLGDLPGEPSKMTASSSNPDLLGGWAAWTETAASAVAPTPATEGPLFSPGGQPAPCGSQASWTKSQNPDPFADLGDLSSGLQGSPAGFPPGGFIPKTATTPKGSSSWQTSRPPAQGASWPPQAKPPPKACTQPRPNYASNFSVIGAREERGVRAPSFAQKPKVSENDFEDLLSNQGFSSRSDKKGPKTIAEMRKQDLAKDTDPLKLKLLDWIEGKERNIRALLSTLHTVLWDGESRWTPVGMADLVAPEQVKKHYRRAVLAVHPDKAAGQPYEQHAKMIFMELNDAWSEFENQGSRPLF
Chain of Dual specificity mitogen-activated protein kinase kinase 1 (Q02750 whole entry): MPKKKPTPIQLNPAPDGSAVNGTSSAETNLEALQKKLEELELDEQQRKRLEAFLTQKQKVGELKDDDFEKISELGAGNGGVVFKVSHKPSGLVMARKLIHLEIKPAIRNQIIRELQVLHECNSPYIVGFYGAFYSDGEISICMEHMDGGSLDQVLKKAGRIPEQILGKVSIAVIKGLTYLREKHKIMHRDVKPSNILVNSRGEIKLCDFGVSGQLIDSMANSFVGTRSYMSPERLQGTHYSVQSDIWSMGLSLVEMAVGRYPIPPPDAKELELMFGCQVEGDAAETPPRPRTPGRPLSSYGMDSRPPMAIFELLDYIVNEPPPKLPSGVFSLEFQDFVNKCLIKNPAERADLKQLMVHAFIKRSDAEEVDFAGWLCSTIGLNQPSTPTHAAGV
Chain of BMP-2-inducible protein kinase (Q9NSY1 whole entry): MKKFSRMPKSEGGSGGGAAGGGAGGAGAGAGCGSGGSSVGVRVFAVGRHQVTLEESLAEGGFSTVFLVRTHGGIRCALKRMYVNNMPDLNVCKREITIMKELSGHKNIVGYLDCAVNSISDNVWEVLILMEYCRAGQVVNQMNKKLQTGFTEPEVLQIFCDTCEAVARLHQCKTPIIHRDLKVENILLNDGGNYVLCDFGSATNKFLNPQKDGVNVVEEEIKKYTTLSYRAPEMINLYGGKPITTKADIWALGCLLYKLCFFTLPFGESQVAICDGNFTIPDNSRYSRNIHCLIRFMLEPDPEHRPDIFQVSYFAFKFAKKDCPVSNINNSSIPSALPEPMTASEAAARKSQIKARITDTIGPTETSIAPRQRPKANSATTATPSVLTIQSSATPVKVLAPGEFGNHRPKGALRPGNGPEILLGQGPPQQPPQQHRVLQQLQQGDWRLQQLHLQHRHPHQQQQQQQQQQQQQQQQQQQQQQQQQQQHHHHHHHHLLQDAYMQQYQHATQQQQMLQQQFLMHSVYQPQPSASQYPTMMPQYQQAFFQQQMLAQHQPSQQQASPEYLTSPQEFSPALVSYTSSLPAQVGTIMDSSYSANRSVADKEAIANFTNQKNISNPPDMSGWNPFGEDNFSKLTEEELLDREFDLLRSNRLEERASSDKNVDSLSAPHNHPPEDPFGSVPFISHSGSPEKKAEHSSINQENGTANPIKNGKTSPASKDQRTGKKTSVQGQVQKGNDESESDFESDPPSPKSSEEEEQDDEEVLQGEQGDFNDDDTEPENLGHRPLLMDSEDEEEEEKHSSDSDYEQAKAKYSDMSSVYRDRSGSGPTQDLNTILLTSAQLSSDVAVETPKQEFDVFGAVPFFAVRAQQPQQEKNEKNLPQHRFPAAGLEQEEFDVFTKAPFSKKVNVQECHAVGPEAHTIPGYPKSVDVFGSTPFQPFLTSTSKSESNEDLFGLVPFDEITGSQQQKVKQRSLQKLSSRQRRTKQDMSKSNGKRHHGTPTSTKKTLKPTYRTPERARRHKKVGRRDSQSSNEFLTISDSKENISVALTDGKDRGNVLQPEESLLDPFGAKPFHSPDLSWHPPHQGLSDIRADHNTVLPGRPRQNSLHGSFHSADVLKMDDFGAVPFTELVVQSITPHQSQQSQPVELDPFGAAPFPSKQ

SMILES: CC(C)(C)c1cc(/C=C(\C#N)C(N)=S)cc(C(C)(C)C)c1O [TYRPHOSTIN AG 879]
- IC50 [1]: 10 µM

SMILES: C1=Nc2ccccc2/C1=C/NNc1nc(Nc2ccccc2)nc(N2CCOCC2)n1
- IC50 [2]: 0.014 µM

SMILES: CC(=O)c1cccc(-c2cc(Nc3ccc(OC(F)(F)F)cc3)ncn2)c1
- IC50 [3]: 0.138 µM
- IC50 (dengue virus type 1): 5 µM
- IC50 (dengue virus type 2): 5 µM
- IC50 (dengue virus type 3): 5 µM
- IC50 (dengue virus type 4): 5 µM

SMILES: CNC(=O)c1cc(Oc2ccc(NC(=O)Nc3ccc(Cl)c(C(F)(F)F)c3)cc2)ccn1 [SORAFENIB]
- IC50 [4]: 0.02 µM

SMILES: Cc1ccc(NC(=O)c2ccc(CN3CCN(C)CC3)cc2)cc1Nc1nccc(-c2cccnc2)n1 [IMATINIB]
- EC50 (SARS-CoV): 2.1 µM

SMILES: Fc1ccc(N2CCCCC2)c(NC(=S)c2ccncc2)c1
- EC50 (Human alphaherpesvirus 1): 0.69 µM

SMILES: COc1ccc(Cc2nccc3cc(OC)c(OC)cc23)cc1OC [PAPAVERINE]
- IC50 (Influenza A virus [5]): 2 µM
- IC50 (Influenza B virus [6]): 2 µM
- IC50 (Influenza A virus [7]): 2 µM
- IC50 (Influenza A virus [8]): 2 µM
- IC50 (Influenza A virus [9]): 2 µM
- IC50 (Influenza B virus [10]): 2 µM
- IC50 (Parainfluenza virus 5): 2 µM

SMILES: Cc1nc(Nc2ncc(C(=O)Nc3c(C)cccc3Cl)s2)cc(N2CCN(CCO)CC2)n1.O [DASATINIB]
- Activity [11]: 93%

SMILES: CC(C)(C)c1cc(C=C(C#N)C#N)cc(C(C)(C)C)c1O [TYRPHOSTIN A9]
- IC50 [4]: 0.5 µM

SMILES: COc1cc(O)c2c(c1)/C=C/C[C@H](O)[C@H](O)C(=O)/C=C\C[C@H](C)OC2=O
- Kd [12]: 0.0038 µM

SMILES: CCN1CCN(Cc2ccc(Nc3ncc(F)c(-c4cc(F)c5nc(C)n(C(C)C)c5c4)n3)nc2)CC1 [ABEMACICLIB]
- IC50 (SARS-CoV-2): 6600 µM
- CC50 [13]: > 50 µM

SMILES: COc1ccccc1-c1cnc2ccc(N3CC[C@H](N(C)C(=O)C(C)C)C3)nn12
- Kd [14]: 0.001 µM

SMILES: CC(=O)Nc1cccc(-n2c(=O)n(C3CC3)c(=O)c3c(Nc4ccc(I)cc4F)n(C)c(=O)c(C)c32)c1 [TRAMETINIB]
- Activity [15]: >95%

SMILES: COc1ccc(-c2cnc3[nH]cc(C#Cc4cccnc4)c3c2)cc1OC
- Kd [14]: 0.004 µM

SMILES: CC(C)C(=O)Nc1n[nH]c2cc(-c3cccc(NS(=O)(=O)C4CC4)c3)ccc12
- Kd [14]: 18 µM

SMILES: O=C(O)c1ccc(F)c(F)c1Nc1ccc(I)cc1Cl [ZAPNOMETINIB]
- IC50 [16]: 0.00573 µM
- IC50 [17]: 0.00573 µM

SMILES: Cn1cnc2c(F)c(Nc3ccc(Br)cc3Cl)c(C(=O)NOCCO)cc21 [SELUMETINIB]
- Activity [15]: >95%

SMILES: Ic1cccc(/C=N/Nc2nc(N3CCOCC3)nc(N(c3ccccc3)c3ccccc3)n2)c1
- IC50 [18]: 0.009 µM

SMILES: CN1CCN(CCOc2cc(OC3CCOCC3)c3c(Nc4c(Cl)ccc5c4OCO5)ncnc3c2)CC1 [SARACATINIB]
- EC50 [19]: 2.9 µM

SMILES: c1cc(-c2cnn3cc(-c4ccc(OCCN5CCCCC5)cc4)cnc23)ccn1 [DORSOMORPHIN]
- IC50 [20]: 0.109 µM

SMILES: COc1cc(N(C)c2ccnc3ccc(C(F)(F)F)cc23)cc(OC)c1OC
- Kd [21]: 2.5 µM

SMILES: Cc1cn(-c2cc(NC(=O)c3ccc(C)c(Nc4nccc(-c5cccnc5)n4)c3)cc(C(F)(F)F)c2)cn1 [NILOTINIB]
- EC50 (SARS-CoV): 2.1 µM

SMILES: COc1ccccc1-c1cnc2ccc(N3CC[C@H](N(C)C(=O)C(C)(C)C)C3)nn12
- Kd [14]: 0.001 µM

SMILES: CC(=O)Nc1ccc(C(C)C(=O)Nc2ncc(C(C)C)s2)cc1 (configuration not stated)
- IC50 (Zika virus): 1.72 µM
- IC50 [22]: 0.031 µM
